Source: US20230107642A1 (Erasca, Inc., priority 2020, published 2023)

These compounds were tested against T1, Cys12 of the KRAS 4B G12C protein (Homo sapiens, UniProt P01116, G12C) (assay: In vitro covalent adduct formation (CAF) assay, LC-MS intact mass). Details: 10 uM compound, 60 min.
T1 construct: This protein contained 188 amino acids in total, including an N-terminal 6-Histidine tag; made in house; host or cells: E. coli BL21
Type: binding
Protocol: This Example provides a protocol for assessing covalent adduct formation (CAF) between the compounds of the present application and KRAS.
In vitro covalent adduct formation assay: Covalent adduct formation (CAF) reactions between Cys12 of the KRAS 4B G12C protein and some of the compounds of Tables 1 to 4 were measured in vitro using liquid chromatography-mass spectrometry (LC-MS).
Recombinant Human KRAS 4B protein containing the G12C mutation was used in compound screening experiments. This protein contained 188 amino acids in total, including an N-terminal 6-Histidine tag, followed by a Tobacco Etch Virus (TEV) tag, followed by residues 1-169 of the native KRAS 4B sequence. The exact mass of the protein was 21,310 Da as determined by mass spectrometry. The full amino acid sequence is shown below: […]
The recombinant protein was expressed in E. coli BL21 cells and purified using affinity chromatography via a Ni-NTA column. Protein stocks were nucleotide-exchanged to >95% GDP, concentrated to 4 mg/mL, and stored at −80° C. in storage buffer (50 mM HEPES pH 7.4, 50 mM NaCl, 5 mM MgCl2, 1 mM DTT). Pure KRAS 4B G12C protein was diluted to a concentration of 5 μM in Tris Buffered Saline, pH 7.4. The compounds were dissolved in DMSO and added to the diluted protein to make a 10 μM concentration. The total DMSO concentration in the reaction was 4%. The reaction was mixed by pipetting and incubated at 22° C. for one hour. Aliquots of the reaction were taken over time and diluted 2:1 in 0.1% formic acid. The intact mass of the protein samples was measured by LC-MS using a QExactive+ mass spectrometer (Thermo Scientific). An amount of 500 ng total protein was injected onto a C8 reverse phase column, eluted with a seven-minute gradient of 30%-90% acetonitrile/0.1% formic acid, and analyzed for intact mass by the mass spectrometer. Adducts identified were confirmed to be within 1 Dalton of the expected mass, and the relative ratios of free:adduct protein were used to quantify the percentage of protein bound by the compound. CAF reactions were run in duplicate, with a typical variability of ±5%.

Compound | % CAF 10 uM @ 60 min
C=CC(=O)N1CCN(c2nc(=O)n3c4c(c(-c5ccc(F)cc5F)c(C(F)(F)F)cc24)SC[C@@H]3CN2CCN(C3CC3)CC2)CC1 (atropisomer, axis not shown) [Example 1390, (3S,10R)-7-(4-acryloylpiperazin-1-yl)-3-((4-cyclopropylpiperazin-1-yl)methyl)-10-(2,4-difluorophenyl)-9-(trifluoromethyl)-2,3-dihydro-5H-[1,4]thiazino[2,3,4-ij]quinazolin-5-one] | 96.7%
C=CC(=O)N1C[C@H](C)N(c2nc(=O)n3c4c(c(-c5cccc6cnn(C)c56)c(Cl)cc24)SC[C@@H]3CN2CCN(C3CC3)CC2)C[C@H]1C [Example 1310, (3S)-7-((2S,5R)-4-acryloyl-2,5-dimethylpiperazin-1-yl)-9-chloro-3-((4-cyclopropylpiperazin-1-yl)methyl)-10-(1-methyl-1H-indazol-7-yl)-2,3-dihydro-5H-[1,4]thiazino[2,3,4-ij]quinazolin-5-one] | 95%
C=CC(=O)N1[C@H](C)CN(c2nc(=O)n3c4c(c(-c5ccc(F)cc5F)c(C(F)(F)F)cc24)SC[C@@H]3CN2CC[C@H](F)C2)C[C@@H]1C (atropisomer, axis not shown) [Example 1429, (3S,10R)-7-((3S,5R)-4-acryloyl-3,5-dimethylpiperazin-1-yl)-10-(2,4-difluorophenyl)-3-(((S)-3-fluoropyrrolidin-1-yl)methyl)-9-(trifluoromethyl)-2,3-dihydro-5H-[1,4]thiazino[2,3,4-ij]quinazolin-5-one] | 79%
C=CC(=O)N1[C@H](C)CN(c2nc(=O)n3c4c(c(-c5ccc(F)cc5F)c(Cl)cc24)SC[C@@H]3COC)C[C@@H]1C [Example 1343a, (3S)-7-((3S,5R)-4-acryloyl-3,5-dimethylpiperazin-1-yl)-9-chloro-10-(2,4-difluorophenyl)-3-(methoxymethyl)-2,3-dihydro-5H-[1,4]thiazino[2,3,4-ij]quinazolin-5-one] | 96.8%
C=CC(=O)N1C[C@H](C)N(c2nc(=O)n3c4c(c(-c5cc(Cl)c(F)cc5F)c(C(F)(F)F)cc24)SC[C@@H]3CN2CCC3(CC2)COC3)C[C@H]1C (atropisomer, axis not shown) [Example 1312, (3S,10S)-3-((2-oxa-7-azaspiro[3.5]nonan-7-yl)methyl)-7-((2S,5R)-4-acryloyl-2,5-dimethylpiperazin-1-yl)-10-(5-chloro-2,4-difluorophenyl)-9-(trifluoromethyl)-2,3-dihydro-5H-[1,4]thiazino[2,3,4-ij]quinazolin-5-one] | 72%
C=CC(=O)N1[C@H](C)CN(c2nc(=O)n3c4c(c(-c5cccc6cnn(C)c56)c(C(F)(F)F)cc24)SC[C@@H]3CN2CCN(C3CC3)CC2)C[C@@H]1C (atropisomer, axis not shown) [Example 1411, (3S,10R)-7-((3S,5R)-4-acryloyl-3,5-dimethylpiperazin-1-yl)-3-((4-cyclopropylpiperazin-1-yl)methyl)-10-(1-methyl-1H-indazol-7-yl)-9-(trifluoromethyl)-2,3-dihydro-5H-[1,4]thiazino[2,3,4-ij]quinazolin-5-one] | 0%
[2H]C([2H])([2H])OC[C@H]1CSc2c(-c3ccc(F)cc3)c(C(F)(F)F)cc3c(N4C[C@@H](C)N(C(=O)C=C)[C@@H](C)C4)nc(=O)n1c23 [Example 1413, (S)-7-((3S,5R)-4-acryloyl-3,5-dimethylpiperazin-1-yl)-10-(4-fluorophenyl)-3-((methoxy-d3)methyl)-9-(trifluoromethyl)-2,3-dihydro-5H-[1,4]thiazino[2,3,4-ij]quinazolin-5-one] | 95.1%
C=CC(=O)N1CCN(c2nc(=O)n3c4c(c(-c5ccc(F)c(Cl)c5)c(C(F)(F)F)cc24)SCC2(COC2)C3)CC1 [Example 1357, 8-(4-acryloylpiperazin-1-yl)-11-(3-chloro-4-fluorophenyl)-10-(trifluoromethyl)-2H-spiro[[1,4]thiazepino[2,3,4-ij]quinazoline-3,3′-oxetan]-6(4H)-one] | 92.4%
C=CC(=O)N1CCN(c2nc(=O)n3c4c(c(-c5c(F)ccc6cnn(C)c56)c(C(F)(F)F)cc24)SC[C@@H]3COC)CC1 (atropisomer, axis not shown) [Example 1416, (3S,10R)-7-(4-acryloylpiperazin-1-yl)-10-(6-fluoro-1-methyl-1H-indazol-7-yl)-3-(methoxymethyl)-9-(trifluoromethyl)-2,3-dihydro-5H-[1,4]thiazino[2,3,4-ij]quinazolin-5-one] | 71.3%
(3S,10S)-7-((2S,5R)-4-acryloyl-2,5-dimethylpiperazin-1-yl)-10-(5-chloro-2,4-difluorophenyl)-3-((4-cyclopropylpiperazin-1-yl)methyl)-9-(trifluoromethyl)-2,3-dihydro-5H-[1,4]thiazino[2,3,4-ij]quinazolin-5-one [Example 1361] | 29.8%

Same assay, conditions: 10 uM compound, 60 min incubation

Compound | % CAF 10 uM @ 60 min
C=CC(=O)N1[C@H](C)CN(c2nc(=O)n3c4c(c(-c5ccc(F)cc5)c(C(F)(F)F)cc24)SC[C@H](N2CCOCC2)C3)C[C@@H]1C [Example 1112, (R)-8-((3S,5R)-4-acryloyl-3,5-dimethylpiperazin-1-yl)-11-(4-fluorophenyl)-3-morpholino-10-(trifluoromethyl)-3,4-dihydro-2H,6H-[1,4]thiazepino [2,3,4-ij]quinazolin-6-one] | 92.4%
C=CC(=O)N1[C@H](C)CN(c2nc(=O)n3c4c(c(-c5cc(Cl)c(F)cc5F)c(C(F)(F)F)cc24)SC[C@@H](N2CCOCC2)C3)C[C@@H]1C (atropisomer, axis not shown) [Example 1136, (3S,11R)-8-((3S,5R)-4-acryloyl-3,5-dimethylpiperazin-1-yl)-11-(5-chloro-2,4-difluorophenyl)-3-morpholino-10-(trifluoromethyl)-3,4-dihydro-2H,6H-[1,4]thiazepino [2,3,4-ij]quinazolin-6-one] | 82.7%

Same assay, conditions: 10 μM compound, after 1 hour

Compound | CAF (% after 1 hour)
C=C(F)C(=O)N1CCN(c2nc(=O)n3c4c(c(-c5cc(Cl)c(F)cc5F)c(C(F)(F)F)cc24)SC[C@@H](OC)C3)CC1 [Example 1219, (3S)-11-(5-Chloro-2,4-difluorophenyl)-8-(4-(2-fluoroacryloyl)piperazin-1-yl)-3-methoxy-10-(trifluoromethyl)-3,4-dihydro-2H,6H-[1,4]thiazepino[2,3,4-ij]quinazolin-6-one] | 64%

Same assay, conditions: after 60 min

Compound | CAF (% binding after 60 min)
C=CC(=O)N1CCN(c2nc(=O)n3c4c(c(-c5ccc(F)c(Cl)c5)c(C(F)(F)F)cc24)SC[C@@H](OC)C3)CC1 [Example 1042, (S)-8-(4-acryloylpiperazin-1-yl)-11-(3-chloro-4-fluorophenyl)-3-methoxy-10-(trifluoromethyl)-3,4-dihydro-2H,6H-[1,4]thiazepino[2,3,4-ij]quinazolin-6-one] | 97%
C=CC(=O)N1CCN(c2nc(=O)n3c4c(c(-c5ccc(F)cc5)c(C(F)(F)F)cc24)SC[C@H](O)C3)CC1 [Example 1002, (R)-8-(4-acryloylpiperazin-1-yl)-11-(4-fluorophenyl)-3-hydroxy-10-(trifluoromethyl)-3,4-dihydro-2H,6H-[1,4]thiazepino[2,3,4-ij]quinazolin-6-one] | 97%
